According to publication PMC3356581 (Bioorganic & medicinal chemistry, 2012):

Key:
catalepsy = details: in vivo studies, five times the ED50 dose; cited from earlier work
D2 receptor = D2 receptor (Homo sapiens, UniProt P14416); assay: NIMH-PDSP radioligand binding, D2
5-HT1A receptor [1] = target: T1, 5-HT1A receptor (Homo sapiens, UniProt P08908); assay: NIMH-PDSP radioligand binding, 5-HT1A
T1 sequence (P08908 1-422): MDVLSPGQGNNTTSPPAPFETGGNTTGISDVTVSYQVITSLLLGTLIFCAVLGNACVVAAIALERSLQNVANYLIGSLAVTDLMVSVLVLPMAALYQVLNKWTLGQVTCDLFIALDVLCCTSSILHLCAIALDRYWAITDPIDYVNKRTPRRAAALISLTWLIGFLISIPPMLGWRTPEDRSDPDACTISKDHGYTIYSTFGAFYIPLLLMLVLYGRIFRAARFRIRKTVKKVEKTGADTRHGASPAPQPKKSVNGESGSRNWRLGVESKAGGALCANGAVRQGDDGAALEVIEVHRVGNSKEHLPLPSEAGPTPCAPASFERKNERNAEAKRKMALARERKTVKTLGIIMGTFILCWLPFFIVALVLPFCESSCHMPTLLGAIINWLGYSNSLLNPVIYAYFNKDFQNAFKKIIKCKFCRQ

5-HT2C receptor [2] = target: T2, 5-HT2C receptor (Homo sapiens, UniProt P28335); assay: NIMH-PDSP radioligand binding, 5-HT2C
T2 sequence (P28335 33-458): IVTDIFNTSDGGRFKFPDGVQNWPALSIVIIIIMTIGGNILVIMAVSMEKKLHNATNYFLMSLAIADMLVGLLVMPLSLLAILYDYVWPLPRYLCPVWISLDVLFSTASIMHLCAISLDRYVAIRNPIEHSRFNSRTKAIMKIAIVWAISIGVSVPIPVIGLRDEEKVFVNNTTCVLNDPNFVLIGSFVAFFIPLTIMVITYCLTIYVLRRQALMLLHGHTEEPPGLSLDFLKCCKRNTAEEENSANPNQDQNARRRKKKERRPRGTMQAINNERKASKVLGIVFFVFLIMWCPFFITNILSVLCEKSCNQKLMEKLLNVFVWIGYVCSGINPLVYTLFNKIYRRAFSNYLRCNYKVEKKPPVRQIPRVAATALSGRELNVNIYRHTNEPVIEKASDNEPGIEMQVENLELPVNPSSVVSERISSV

5-HT2A receptor = 5-HT2A receptor (Homo sapiens, UniProt P28223); assay: NIMH-PDSP radioligand binding, 5-HT2A
D4 receptor [3] = target: T3, D4 receptor (Homo sapiens, UniProt P21917); assay: NIMH-PDSP radioligand binding, D4
T3 sequence (P21917 1-419): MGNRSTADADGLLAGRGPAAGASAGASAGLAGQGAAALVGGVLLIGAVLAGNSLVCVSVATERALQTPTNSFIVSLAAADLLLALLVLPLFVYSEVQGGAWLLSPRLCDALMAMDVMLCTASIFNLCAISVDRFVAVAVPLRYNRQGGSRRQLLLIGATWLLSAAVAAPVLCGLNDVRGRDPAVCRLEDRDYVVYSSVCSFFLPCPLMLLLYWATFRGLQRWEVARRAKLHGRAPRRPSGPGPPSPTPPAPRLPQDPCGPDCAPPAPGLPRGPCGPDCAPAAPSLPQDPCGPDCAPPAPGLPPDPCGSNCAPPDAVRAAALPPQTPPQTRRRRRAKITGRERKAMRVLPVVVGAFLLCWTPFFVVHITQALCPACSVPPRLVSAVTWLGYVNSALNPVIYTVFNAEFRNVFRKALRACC

Histamine H1 receptor = Histamine H1 receptor (Homo sapiens, UniProt P35367); assay: NIMH-PDSP radioligand binding, H1
D4 receptor [4] = target: T3, D4 receptor; details: read-out: Binding data, Ki ± SEM, previously reported; cited from earlier work
5-HT2C receptor [5] = target: T2, 5-HT2C receptor; details: read-out: Binding data, Ki ± SEM, previously reported; cited from earlier work
5-HT1A receptor [6] = target: T1, 5-HT1A receptor; details: read-out: Binding data, Ki ± SEM, previously reported; cited from earlier work

Sequence of D2 receptor (P14416 whole entry): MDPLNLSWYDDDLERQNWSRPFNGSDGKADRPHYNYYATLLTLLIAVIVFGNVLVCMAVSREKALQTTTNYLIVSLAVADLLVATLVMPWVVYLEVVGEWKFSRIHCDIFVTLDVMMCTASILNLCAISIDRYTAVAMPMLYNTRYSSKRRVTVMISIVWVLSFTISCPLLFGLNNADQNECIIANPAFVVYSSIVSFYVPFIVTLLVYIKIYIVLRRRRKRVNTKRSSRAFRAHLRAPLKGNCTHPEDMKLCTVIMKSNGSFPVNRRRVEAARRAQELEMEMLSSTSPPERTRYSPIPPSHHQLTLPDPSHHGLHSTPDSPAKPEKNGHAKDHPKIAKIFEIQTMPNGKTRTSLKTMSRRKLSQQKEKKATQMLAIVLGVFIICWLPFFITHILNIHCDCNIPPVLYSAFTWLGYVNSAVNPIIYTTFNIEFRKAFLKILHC
Sequence of 5-HT2A receptor (P28223 whole entry): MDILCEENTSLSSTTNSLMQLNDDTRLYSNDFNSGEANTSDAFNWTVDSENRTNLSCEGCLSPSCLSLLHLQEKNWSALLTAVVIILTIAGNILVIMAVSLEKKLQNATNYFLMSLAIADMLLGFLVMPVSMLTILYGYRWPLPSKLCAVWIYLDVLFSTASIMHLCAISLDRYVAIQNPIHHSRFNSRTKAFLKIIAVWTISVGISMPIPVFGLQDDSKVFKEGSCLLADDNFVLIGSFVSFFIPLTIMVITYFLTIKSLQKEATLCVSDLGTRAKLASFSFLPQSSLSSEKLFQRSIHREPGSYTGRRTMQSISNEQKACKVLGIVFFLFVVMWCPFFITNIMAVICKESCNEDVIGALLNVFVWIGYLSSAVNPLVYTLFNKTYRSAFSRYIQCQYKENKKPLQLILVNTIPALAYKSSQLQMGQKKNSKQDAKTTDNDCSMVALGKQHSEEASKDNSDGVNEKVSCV
Sequence of Histamine H1 receptor (P35367 whole entry, species assumed): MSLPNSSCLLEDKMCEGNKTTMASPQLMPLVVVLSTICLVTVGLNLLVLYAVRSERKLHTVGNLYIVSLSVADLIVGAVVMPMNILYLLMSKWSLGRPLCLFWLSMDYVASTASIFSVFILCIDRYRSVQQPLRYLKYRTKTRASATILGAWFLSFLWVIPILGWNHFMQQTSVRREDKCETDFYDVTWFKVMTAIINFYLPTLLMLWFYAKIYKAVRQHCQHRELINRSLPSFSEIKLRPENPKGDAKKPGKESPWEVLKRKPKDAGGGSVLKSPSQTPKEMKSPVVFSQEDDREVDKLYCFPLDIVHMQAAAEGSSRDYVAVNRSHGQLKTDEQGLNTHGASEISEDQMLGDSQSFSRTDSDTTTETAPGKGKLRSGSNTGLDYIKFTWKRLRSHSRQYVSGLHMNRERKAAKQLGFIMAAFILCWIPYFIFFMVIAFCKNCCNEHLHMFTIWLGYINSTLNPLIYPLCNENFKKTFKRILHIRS

Row | SMILES | Binding data; Ki ± SEM, D2 (D2 receptor) | Binding data; Ki ± SEM, 5-HT1A (5-HT1A receptor [1]) | Binding data; Ki ± SEM, 5-HT2C (5-HT2C receptor [2]) | Binding data; Ki ± SEM, 5-HT2A (5-HT2A receptor) | other results
1 | O=C(CCCN1CCCN(c2ccc(Cl)cc2)CC1)c1ccc(F)cc1 [Compound 2, 4-(4-(4-chlorophenyl)-1,4-diazepan-1-yl)-1-(4-fluorophenyl)butan-1-one] | – | – | – | – | catalepsy (catalepsy): without the associated catalepsy even at five times the ED50 dose
2 | Clc1ccc(N2CCCN(CCCc3nc4ccccc4s3)CC2)cc1 [Compound 14, 2-(3-(4-(4-Chlorophenyl)-1,4-diazepan-1-yl)propyl)benzo [d]thiazole] | MP (Missed primary assay threshold of 50% inhibition) | – | – | – | –
3 | O=C(CCCCN1C2CCC1CC(O)(c1ccc(Cl)cc1)C2)c1nc2ccccc2s1 (stereo not shown) [Compound 18, 1-(Benzo[d]thiazol-2-yl)-5-(3-(4-chlorophenyl)-3-hydroxy-8-azabicyclo[3.2.1]octan-8-yl)pentan-1-one] | – | MP (Missed primary assay threshold of 50% inhibition) | MP (Missed primary assay threshold of 50% inhibition) | MP (Missed primary assay threshold of 50% inhibition) | –
4 | Clc1ccc(N2CCCN(Cc3nc4ccccc4s3)CC2)cc1 [Compound 15, 2-((4-(4-Chlorophenyl)-1,4-diazepan-1-yl)methyl)benzo [d]thiazole] | – | MP (Missed primary assay threshold of 50% inhibition) | MP (Missed primary assay threshold of 50% inhibition) | MP (Missed primary assay threshold of 50% inhibition) | Binding data; Ki ± SEM, D4 (D4 receptor [3]): MP (Missed primary assay threshold of 50% inhibition); Binding data; Ki ± SEM, H1 (Histamine H1 receptor): MP (Missed primary assay threshold of 50% inhibition)
5 | O=C(CCCN1CCCN(c2ccc(Cl)cc2)CC1)c1nc2ccccc2s1 [Compound 17, 1-(Benzo[d]thiazol-2-yl)-4-(4-(4-chlorophenyl)-1,4-diazepan-1-yl)butan-1-one] | MP (Missed primary assay threshold of 50% inhibition) | MP (Missed primary assay threshold of 50% inhibition) | MP (Missed primary assay threshold of 50% inhibition) | – | –
6 | O=C(CCCN1CCN(c2ccc(Cl)cc2)CC1)c1ccc(F)cc1 [Compound 3] | – | – | – | – | Ki (D4 receptor [4]): 17.5 ± 2 nM; Ki (5-HT2C receptor [5]): 3550 ± 943 nM; Ki (5-HT1A receptor [6]): 90.9 ± 21 nM
